From US4382765A, “Method of moisturizing the skin with carbamide acid esters” (Henkel Kommanditgesellschaft auf Aktien, priority 1977, dated 1983)

Columns and labels:
[1] = Determination of the equilibrium dampness; type: physicochemical; conditions: 24 hours at 23° C.; relative humidity at which neither expulsion nor retention of water is effected; lower is better
Excerpt: (§1) The favorable action of the compounds, which are to be used in accordance with the invention, with respect to their capacity for the absorption and retention of water, was established by means of the test methods described hereinafter. A process for determining the equilibrium dampness which is indicative of the water retention capacity, and the determination of the water retention, rehydration and elasticity of impregnated pig epidermis are described in these tests.
The substances (approximately 300 to 500 mg) to be tested were moistened with a defined quantity of water and were exposed for 24 hours at 23° C. to various relative atmospheric humidities (1%, 30%, 47%, 65%, 89% and 100% relative humidity). The quantity of water absorbed or desorbed was determined gravimetrically and plotted on a graph. The relative humidity at which neither expulsion nor retention of water is effected can be determined from the resultant curves. This value, which is designated as the "equilibrium dampness", is a measure of the water retention capacity of a substance. The lower the value, the more positive is the assessment of the product. Furthermore, the hygroscopicity of the substance can be read from the slope of the curve.

[2] = system: pig epidermis; assay: Water retention of impregnated pig epidermis; conditions: 24 hours, 23° C., soaked 2 h in 10% solution, improvement vs blank value (water only)
Excerpt: as §1
(§2) Immediately after the pigs have been killed, the skin bristles are cut off by means of a shearing machine (shearing head 0.1 mm). The pigs are soaked for approximately 3 to 5 minutes in warm water of 60° C., the epidermis is subsequently peeled off and stored at -20° C. until it is used.
(§3) Stamped out pieces of epidermis (1×2 cm) were soaked for two hours in a 10% solution of the test substance. Excess moisture was then removed under standardized conditions by means of a small press, and the pieces were dried for 24 hours, hanging freely between 2 clamps in a 100 ml Erlenmeyer flask at 23° C., both at 30% relative humidity and 50% relative humidity (set by mixtures of sulfuric acid and water). The drying out of the impregnated test pieces to X% of the initial weight was compared with the corresponding value of the epidermis which had been soaked only in water (blank value). In Table I, the improvement in the water retention and in the rehydration as compared with the blank value is given in Δ% H2 O. The deviations in each double test amounted to a maximum of ±2 absolute units. The test was repeated if greater deviations occurred. The rehydration was determined analogously by drying the pig epidermis, which had been impregnated and from which the excess moisture had been removed, for 24 hours at 30% relative humidity, and by subsequent incubation for 24 hours at 90% relative humidity.

[3] = system: pig epidermis; assay: Rehydration of impregnated pig epidermis; conditions: dried 24 h at 30% r.h., then incubated 24 h at 90% r.h.; 10% solution; improvement vs blank value
Excerpt: as §1, §2, §3

[4] = system: pig epidermis; assay: Elasticity measurements made on the impregnated pig epidermis; conditions: 24 hours, soaked 2 h in 10% aqueous solution; for mm stretch with between 5 and 30 pound loading at 75% r.h.: blank value 0; for mm stretch with between 5 and 30 pound loading at 90% r.h.: blank value 0.3-0.5
Experimental: A process for determining the equilibrium dampness which is indicative of the water retention capacity, and the determination of the water retention, rehydration and elasticity of impregnated pig epidermis are described in these tests.
as §2
Stamped out pieces of pig epidermis (1×6 cm) were soaked for two hours in a 10% aqueous solution of the substance which was to be tested, and excess moisture was removed from these pieces under standarized conditions. […] The amount of stretch in mm, measured in the Hooke range at a load between 5 to 30 pund, was determined as a measure of the elasticity.

SMILES	Equilibrium dampness [1] [% r.h.]	Water Retention, % H2O after drying out at 30% r.h. [2]	Water Retention, % H2O after drying out at 50% r.h. [2]	Rehydration, Δ% water absorption at 90% r.h. [3]	mm stretch with between 5 and 30 pound loading at 75% r.h. [4] [mm]	mm stretch with between 5 and 30 pound loading at 90% r.h. [4] [mm]
O=C(NCCO)OCCO [Product A, N-(2-hydroxyethyl)-carbamide acid-2-hydroxyethyl ester]	58	25 Δ% H2O	26 Δ% H2O	62 Δ% H2O	1.1	5.5
CC(O)CNC(=O)OCCO (stereo not drawn) [Product B, N-(2-hydroxypropyl)-carbamide acid-2-hydroxyethyl ester]	58	23 Δ% H2O	22 Δ% H2O	70 Δ% H2O	1.0	6.0
CC1(C)COC(=O)N1 [Product F, 4,4-Dimethyl-oxazolidine-2-one]	83	5 Δ% H2O	7 Δ% H2O	5 Δ% H2O	0.4	7.4
O=C1NC(CO)(CO)CO1 [Product H, 4,4-bis-hydroxymethyl-oxazolidine-2-one]	76	12 Δ% H2O	15 Δ% H2O	10 Δ% H2O	0.5	2.6
O=C1OCCN1CCO [Product I, N-(2-hydroxyethyl)-oxazolidine-2-one]	68	10 Δ% H2O	16 Δ% H2O	16 Δ% H2O	0.8	6.0
